{"source": "patent US20080200527A1", "about": "“Cannabinoid Receptor Modulators” (Carex SA, priority 2005, published 2008)", "origin": "cited, not measured here", "test_system": "absorption of dietary fat", "conditions": "in vivo", "data": [{"smiles": "CCCCCCCCCCC[C@@H](C[C@@H]1OC(=O)[C@H]1CCCCCC)OC(=O)[C@H](CC(C)C)NC=O", "note": "[orlistat]", "values": [{"measurement": "block of the absorption of dietary fat", "value": "up to 30%"}]}]}
